Data from US8741659B2, “Composition for measuring the binding affinity between nucleic acid and test substance, and use thereof” (Osaka University, priority 2007, dated 2014).

Key:
[1] = tested on: RNAs of FIG. 2 (SEQ ID NOs: 1 through 3), with or without bulge structure; assay: Evaluation of binding between xanthone fluorescent molecule and RNA (fluorescence before and after mixing RNA); settings: 10 μM compound, 30 μM RNA (A, U, C, G bulge or no bulge), cacodylate buffer pH 7.0, NaCl 100 mM
Description: Next, binding between X2S and RNAs was evaluated. The RNAs used in the present example had the structure illustrated in FIG. 2. FIG. 2 is a diagram schematically illustrating the structure of the RNAs used in the present example. The RNAs used in the present example had sequences shown in SEQ ID NOs: 1 through 3.
The symbol N in FIG. 2 represents either a base out of A, U, C, and G, or no base. Thus, in a case where a particular RNA as in FIG. 2 has N representing a base out of A, U, C, and G, the RNA is an RNA formed by hybridization of an RNA having the base sequence shown in SEQ ID NO: 1 with a single strand RNA having the base sequence shown in SEQ ID NO: 2. On the other hand, in a case where a particular RNA as in FIG. 2 has N representing no base, the RNA is an RNA formed by hybridization of an RNA having the base sequence shown in SEQ ID NO: 1 with an RNA having the base sequence shown in SEQ ID NO: 3.
This also applies to other bases. The RNAs used in the present example were purchased from Hokkaido System Science Co., Ltd.
Firstly, X2S was mixed in a cacodylate buffer solution (sodium cacodylate: 10 mM, pH 7.0; NaCl: 100 mM) at 10 μM, so that an X2S solution was obtained. The X2S solution was irradiated with light having an absorption maximum of 371±3 nm, and a fluorescence intensity was then measured. The fluorescence intensity was measured with use of a device (product number: RF-5300PC) available from Shimadzu Corporation. For each type of the RNAs, the fluorescence intensity was measured after the RNA was mixed in the X2S solution at 30 μM.
FIGS. 3 and 4 compare the fluorescence intensities measured before and after the RNA was mixed. […] The horizontal axis represents the fluorescence wavelength, whereas the vertical axis represents the fluorescence intensity. FIG. 4 is an enlarged graph corresponding to the fluorescence intensity of 5 A.U. in FIG. 3 and its vicinity.
Binding between X1S and RNAs was evaluated by a method identical to the method described in Example 2, except that X1S was used instead of X2S. […]

RRE = assay: Displacement assay using X2S; assay type: binding, HIV-1
From the text: In this Example, X2S was used to measure a binding affinity between a test substance and RRE. As the test substance, Rev protein (supplied by Professor Takashi MORII, Graduates School of Energy Science, Kyoto University), aminoglycoside antibiotic neomycin (available from Sigma-Aldrich, product number; N-1876) (hereinafter, simply referred to as “neomycin”), and thrombin (available from Bachem, product number; AG H-8550) were used. […] The structure of Rev protein is shown in FIG. 9, and the amino acid sequence of Rev protein is shown in SEQ ID NO: 5. FIG. 9 is a view schematically illustrating the structure of Rev protein. Further, the structure of thrombin is shown in FIG. 10, and the amino acid sequence of thrombin is shown in SEQ ID NO: 6. FIG. 10 is a view schematically illustrating the structure of thrombin.
Firstly, in the same manner as in Example 3, X2S and RRE were dissolved in a cacodylate buffer solution (sodium cacodylate: 10 mM, pH 7.0; NaCl: 100 mM) each at 2 μM. Thus, an X2S-RRE solution was prepared.
To the X2S-RRE solution, Rev protein was added in steps at 0 μM, 0.4 μM, 0.8 μM, 1.2 μM, 1.6 μM, 2.0 μM, 2.4 μM, 2.8 μM, 3.2 μM, 3.6 μM, and 4.0 μM. Further, a fluorescence intensity was measured at each concentration. Similarly, to the X2S-RRE solution, neomycin was added in steps at 0 μM, 0.4 μM, 0.8 μM, 1.2 μM, 1.6 μM, 2.0 μM, 2.4 μM, 2.8 μM, 3.2 μM, 3.6 μM, and 4.0 μM. Further, a fluorescence intensity was measured at each concentration. Similarly, to the X2S-RRE solution, thrombin was added in steps at 0 μM, 0.4 μM, 0.8 μM, 1.2 μM, 1.6 μM, 2.0 μM, 2.4 μM, 2.8 μM, 3.2 μM, 3.6 μM, and 4.0 μM. Further, a fluorescence intensity was measured at each concentration. The fluorescence intensities were measured in the same manner as that described in Example 2.
FIG. 11 is a view illustrating a result of the measurement of a binding affinity between Rev protein and RRE; FIG. 12 is a view illustrating a result of the measurement of a binding affinity between neomycin and RRE; and FIG. 13 is a view illustrating a result of the measurement of a binding affinity between thrombin and RRE. In each of FIGS. 11 to 13, the horizontal axis represents the fluorescence wavelength, whereas the vertical axis represents the fluorescence intensity. […] Furthermore, along the direction of the arrow extending from the curved line at the bottom, the curved lines are arranged in order of increasing amount of the test substance which was added.
FIG. 14 is a view plotting the fluorescence intensities at a fluorescence wavelength of 453 nm shown in the results illustrated in FIGS. 11 to 13. The horizontal axis represents the concentration of each test substance, whereas the vertical axis represents the fluorescence intensity. In FIG. 14, the circle marks represent the result obtained in the case involving use of Rev protein, the square marks represent the result obtained in the case involving use of neomycin, and the triangle marks represent the result obtained in the case involving use of thrombin.
A displacement assay using X2S was performed in the same manner as that described in Example 5, except that, in this Example, fluorescence was measured also when Rev protein was added at concentrations of 4.4 μM and 4.8 μM.
FIG. 16 is a view illustrating the result of the displacement assay using X2S. The horizontal axis represents the fluorescence wavelength, whereas the vertical axis represents the fluorescence intensity.

NCCOc1ccc2oc3ccc(OCCN)cc3c(=O)c2c1 [X2S, 2,7-bis(2-aminoethoxy)xanthen-9-one]
binding to RNAs [1]: capable of binding to RNAs having various structures | change in the fluorescence intensity, X2S compared with ethidium bromide (RRE; FIG. 11 compared with FIG. 15): greater in the case involving use of X2S than in the case involving use of ethidium bromide | concentration at which a change in fluorescence intensity was still clearly observed (RRE; Rev protein up to 4.8 μM): 3.2 µM | ultimate increase of fluorescence intensity (RRE; Rev protein up to 4.8 μM): approximately 80%
